Patent US20240207427A1, “SELECTIVE DRUG RELEASE FROM INTERNALIZED CONJUGATES OF BIOLOGICALLY ACTIVE COMPOUNDS” (priority 2021, published 2024)
Where two headings read alike, the source gives them in different places.

Experiments:
Assay type in all cases: cell-based
[1] = test system: anaplastic large cell lymphoma cells (Karpas299); assay: In vitro potency (CellTiter-Glo, 96 h), Karpas299; conditions: Homo sapiens, KARPAS-299, 96 h, CPT free drugs, anaplastic large cell lymphoma cells Karpas299, 96 h, CellTiter-Glo
Protocol: (§1) In vitro potency was assessed on multiple cancer cell lines. All cell lines were authenticated by STR profiling at IDEXX Bioresearch and cultured for no more than 2 months after resuscitation. Cells cultured in log-phase growth were seeded for 24 hours in 96-well plates containing […] RPMI 1640 supplemented with 20% FBS. Serial dilutions of antibody-drug conjugates in cell culture media were prepared at 4× working concentrations, and 50 μL of each dilution was added to the 96-well plates. Following addition of test articles, cells were incubated with test articles for 4 days at 37 0° C. After 96 hours, growth inhibition was assessed by CellTiterGlo® (Promega, Madison, WI) and luminescence was measured on a plate reader.
(§2) In Table 7, IC50 values for ADCs are given in ng/mL. Cell viability was determined by CellTiter-Glo staining after 96 h exposure to ADC. ND=Not Determined. Ag2 is an antibody targeting a ubiquitous and readily internalizable antigen. The cancer cell lines tested are renal carcinoma cells (786-0), melanoma cells (A2058), pancreatic cancer cells (BxPC3), non-small-cell lung cancer cells (Calu1), anaplastic large cell lymphoma cells (DEL, DELBVR, Karpas299), Hodgkin's lymphoma cells (L540cy), (Ls174T), breast cancer cells (MDA-MB-231), acute myeloid leukemia cells (MOLM-13), and B-lymphocyte cancer cells (SU-DHL4).
as §1, with “FBS.” for “FBS. Serial dilutions of antibody-drug conjugates in cell culture media were prepared at 4× working concentrations, and 50 μL of each dilution was added to the 96-well plates.”
(§3) Cell viability was determined by CellTiter-Glo staining after 96 h exposure to the compound. ND=Not Determined. The cancer cell lines tested are renal carcinoma cells (786-0), melanoma cells (A2058), pancreatic cancer cells (BxPC3), non-small-cell lung cancer cells (Calu1), anaplastic large cell lymphoma cells (DEL, DELBVR, Karpas299), Hodgkin's lymphoma cells (L540cy), (Ls 174T), breast cancer cells (MDA-MB-231), acute myeloid leukemia cells (MOLM-13), B-lymphocyte cancer cells (SU-DHL4), multiple myeloma cells (MM.1R), (U266), and melanoma cells (SK-MEL-5).
as §1, with “37°” for “37 0°”
(§4) In the following Tables IC50 values for ADCs and CPT free drugs are given in ng/mL and nmol/L concentrations. Cell viability was determined by CellTiter-Glo staining after 96 h exposure to ADC or CPT free drug.
(§5) Cell viability was determined by CellTiter-Glo staining after 96 h exposure to ADC. ND=Not Determined.

[2] = test system: anaplastic large cell lymphoma cells (DELBVR); assay: In vitro potency (CellTiter-Glo, 96 h), DELBVR
Protocol: as §1, §2
as §1, with “FBS.” for “FBS. Serial dilutions of antibody-drug conjugates in cell culture media were prepared at 4× working concentrations, and 50 μL of each dilution was added to the 96-well plates.”
as §3
as §1, with “37°” for “37 0°”
as §4, §5

[3] = test system: anaplastic large cell lymphoma cells (DEL); assay: In vitro potency (CellTiter-Glo, 96 h), DEL
Protocol: as §1, §2
as §1, with “FBS.” for “FBS. Serial dilutions of antibody-drug conjugates in cell culture media were prepared at 4× working concentrations, and 50 μL of each dilution was added to the 96-well plates.”
as §3
as §1, with “37°” for “37 0°”
as §4, §5

[4] = test system: breast cancer cells (MDA-MB-231); assay: In vitro potency (CellTiter-Glo, 96 h), MDA-MB-231; conditions: Homo sapiens, MDA-MB-231, 96 h, CPT free drugs, breast cancer cells MDA-MB-231, 96 h, CellTiter-Glo
Protocol: as §1, §2
as §1, with “FBS.” for “FBS. Serial dilutions of antibody-drug conjugates in cell culture media were prepared at 4× working concentrations, and 50 μL of each dilution was added to the 96-well plates.”
as §3
as §1, with “37°” for “37 0°”
as §4, §5

Ls174T cells = assay: In vitro potency (CellTiter-Glo, 96 h), Ls174T; conditions: Homo sapiens, CPT free drugs, Ls174T cells, 96 h, CellTiter-Glo
Protocol: as §1, §2
as §1, with “FBS.” for “FBS. Serial dilutions of antibody-drug conjugates in cell culture media were prepared at 4× working concentrations, and 50 μL of each dilution was added to the 96-well plates.”
as §3
as §1, with “37°” for “37 0°”
as §4, §5

[5] = test system: B-lymphocyte cancer cells (SU-DHL4); assay: In vitro potency (CellTiter-Glo, 96 h), SU-DHL-4; conditions: Homo sapiens, SU-DHL-4, 96 h, CPT free drugs, B-lymphocyte cancer cells SU-DHL4, 96 h, CellTiter-Glo
Protocol: as §1, §2
as §1, with “FBS.” for “FBS. Serial dilutions of antibody-drug conjugates in cell culture media were prepared at 4× working concentrations, and 50 μL of each dilution was added to the 96-well plates.”
as §3
as §1, with “37°” for “37 0°”
as §4, §5

[6] = test system: Hodgkin's lymphoma cells (L540cy); assay: In vitro potency (CellTiter-Glo, 96 h), L540cy
Protocol: as §1, §2
as §1, with “FBS.” for “FBS. Serial dilutions of antibody-drug conjugates in cell culture media were prepared at 4× working concentrations, and 50 μL of each dilution was added to the 96-well plates.”
as §3
as §1, with “37°” for “37 0°”
as §4, §5

[7] = test system: acute myeloid leukemia cells (MOLM-13); assay: In vitro potency (CellTiter-Glo, 96 h), MOLM-13; conditions: Homo sapiens, MOLM-13, 96 h, CPT free drugs, acute myeloid leukemia cells MOLM-13, 96 h, CellTiter-Glo
Protocol: as §1, §2
as §1, with “FBS.” for “FBS. Serial dilutions of antibody-drug conjugates in cell culture media were prepared at 4× working concentrations, and 50 μL of each dilution was added to the 96-well plates.”
as §3
as §1, with “37°” for “37 0°”
as §4, §5

[8] = test system: pancreatic cancer cells (BxPC3); assay: In vitro potency (CellTiter-Glo, 96 h), BxPC3; conditions: Homo sapiens, BXPC-3, 96 h, CPT free drugs, pancreatic cancer cells BxPC3, 96 h, CellTiter-Glo
Protocol: as §1, §2
as §1, with “FBS.” for “FBS. Serial dilutions of antibody-drug conjugates in cell culture media were prepared at 4× working concentrations, and 50 μL of each dilution was added to the 96-well plates.”
as §3
as §1, with “37°” for “37 0°”
as §4, §5

[9] = test system: renal carcinoma cells (786-O); assay: In vitro potency (CellTiter-Glo, 96 h), 786-O; conditions: Homo sapiens, 786-0, 96 h, CPT free drugs, renal carcinoma cells 786-O, 96 h, CellTiter-Glo
Protocol: as §1, §2
as §1, with “FBS.” for “FBS. Serial dilutions of antibody-drug conjugates in cell culture media were prepared at 4× working concentrations, and 50 μL of each dilution was added to the 96-well plates.”
as §3
as §1, with “37°” for “37 0°”
as §4, §5

[10] = read-out: MOLM-13 IC50, Table 28
[11] = read-out: Karpas299 IC50, Table 28
[12] = read-out: DELBVR IC50, Table 28, CPT free drugs, anaplastic large cell lymphoma cells DELBVR, CellTiter-Glo
[13] = read-out: MDAMB231 IC50, Table 28
[14] = LS174T, read-out: Ls174T IC50, Table 28
[15] = read-out: SU-DHL-4 IC50, Table 28
[16] = read-out: L540cy IC50, Table 28, CPT free drugs, Hodgkin's lymphoma cells L540cy, CellTiter-Glo
[17] = read-out: Karpas299 IC50, Table 29
[18] = read-out: DELBVR IC50, Table 29, CPT free drugs, anaplastic large cell lymphoma cells DELBVR, CellTiter-Glo
[19] = read-out: DEL IC50, Table 29, CPT free drugs, anaplastic large cell lymphoma cells DEL, CellTiter-Glo
[20] = read-out: MDAMB231 IC50, Table 29
[21] = LS174T, read-out: Ls174T IC50, Table 29
[22] = read-out: SU-DHL-4 IC50, Table 29
[23] = read-out: L540cy IC50, Table 29, CPT free drugs, Hodgkin's lymphoma cells L540cy, CellTiter-Glo
[24] = read-out: MOLM-13 IC50, Table 29
[25] = read-out: DEL IC50, Table 28, CPT free drugs, anaplastic large cell lymphoma cells DEL, CellTiter-Glo

| SMILES | IC50 [7, 10] [nM] | IC50 [1, 11] [nM] | IC50 [2, 12] [nM] | IC50 [4, 13] [nM] | IC50 (Ls174T cells; [14]) [nM] | IC50 [5, 15] [nM] | IC50 [6, 16] [nM] | IC50 ([8]; read-out: BxPC3 IC50, Table 28) [nM] | IC50 ([9]; read-out: 786-O IC50, Table 28) [nM] | IC50 [1, 17] [nM] | IC50 [2, 18] [nM] | IC50 [3, 19] [nM] | IC50 [4, 20] [nM] | IC50 (Ls174T cells; [21]) [nM] | IC50 [5, 22] [nM] | IC50 [6, 23] [nM] | IC50 [7, 24] [nM] | IC50 ([8]; read-out: BxPC3 IC50, Table 29) [nM] | IC50 ([9]; read-out: 786-O IC50, Table 29) [nM] | other results |
| --- | --- | --- | --- | --- | --- | --- | --- | --- | --- | --- | --- | --- | --- | --- | --- | --- | --- | --- | --- | --- |
| CC[C@@]1(O)C(=O)OCc2c1cc1n(c2=O)Cc2c-1nc1cc3c(cc1c2CN)COC3 [Compound 2ak] | 129 | – | – | – | – | – | – | – | – | – | – | – | – | – | – | – | – | – | – | IC50 ([1]; Table 28, read-out: Karpas299 IC50): 40 nM; IC50 ([2]; Table 28, CPT free drugs, anaplastic large cell lymphoma cells DELBVR, CellTiter-Glo, read-out: DELBVR IC50): 6 nM; IC50 ([3]; Table 28, CPT free drugs, anaplastic large cell lymphoma cells DEL, CellTiter-Glo, read-out: DEL IC50): 6 nM; IC50 ([4]; Table 28, read-out: MDAMB231 IC50): 147 nM; IC50 (Ls174T cells; Table 28, read-out: Ls174T IC50): 50 nM; IC50 ([5]; Table 28, read-out: SU-DHL-4 IC50): 11 nM; IC50 ([6]; Table 28, CPT free drugs, Hodgkin's lymphoma cells L540cy, CellTiter-Glo, read-out: L540cy IC50): 22 nM; IC50 ([8]; Table 28, read-out: BxPC3 IC50): 88 nM; IC50 ([9]; Table 28, read-out: 786-O IC50): 57 nM |
| CC[C@@]1(O)C(=O)OCc2c1cc1n(c2=O)Cc2c-1nc1cc3c(cc1c2CNC(C)=O)OCO3 [Compound 12b] | 3 | 8 | 1 | 28 | 22 | 1 | 4 | 11 | 12 | – | – | – | – | – | – | – | – | – | – | – |
| CC[C@@]1(O)C(=O)OCc2c1cc1n(c2=O)Cc2c-1nc1cc3c(cc1c2CNC1CCN(C)CC1)OCO3 [Compound 7w] | – | – | – | – | – | – | – | – | – | 8 | 2 | 2 | 26 | 16 | 6 | 6 | 26 | 13 | 15 | – |
| CC[C@@]1(O)C(=O)OCc2c1cc1n(c2=O)Cc2c-1nc1cc3c(cc1c2CNC[C@H](O)CN1CCCCC1)OCO3 [Compound 7aa] | – | – | – | – | – | – | – | – | – | 63 | 19 | 17 | 228 | 188 | 19 | 51 | 69 | 66 | 131 | – |
| CC[C@@]1(O)C(=O)OCc2c1cc1n(c2=O)Cc2c-1nc1cc3c(cc1c2CN1CCC(N)CC1)OCO3 [Compound 8f] | – | – | – | – | – | – | – | – | – | 110 | 30 | 14 | 207 | 236 | 32 | 84 | 32 | 166 | 267 | – |
| CC[C@@]1(O)C(=O)OCc2c1cc1n(c2=O)Cc2c-1nc1cc3c(cc1c2CNC[C@H](O)CO)OCO3 [Compound 7n] | – | – | – | – | – | – | – | – | – | 57 | 6 | 5 | 96 | 39 | 21 | 23 | 137 | 47 | 66 | – |
| CC[C@@]1(O)C(=O)OCc2c1cc1n(c2=O)Cc2c-1nc1cc3c(cc1c2CNC[C@@H](O)CN1CCCCC1)OCO3 [Compound 7z] | – | – | – | – | – | – | – | – | – | 150 | 16 | 17 | 306 | 79 | 39 | 48 | 143 | 127 | 123 | – |
| CC[C@@]1(O)C(=O)OCc2c1cc1n(c2=O)Cc2c-1nc1cc3c(cc1c2CNC(C)=O)CCO3 [Compound 12] | 5 | 24 | 1 | 27 | 19 | 1 | 5 | 12 | 13 | – | – | – | – | – | – | – | – | – | – | IC50 [3, 25]: 1 nM |
| C=Cc1c(C)c(F)cc2nc3c(c(CN)c12)Cn1c-3cc2c(c1=O)COC(=O)[C@]2(O)CC [Compound 2am, (S)-11-(aminomethyl)-4-ethyl-8-fluoro-4-hydroxy-9-methyl-10-vinyl-1,12-dihydro-14H-pyrano[3′,4′:6,7]indolizino[1,2-b]quinoline-3,14(4H)-dione] | 2 | 2 | 0.3 | 5 | 5 | 1 | 1 | 4 | 2 | – | – | – | – | – | – | – | – | – | – | IC50 [3, 25]: 0.3 nM |
| CC[C@@]1(O)C(=O)OCc2c1cc1n(c2=O)Cc2c-1nc1cc3c(cc1c2CNCCN1CCNCC1)OCO3 [Compound 8b] | – | – | – | – | – | – | – | – | – | 62 | 13 | 8 | 260 | 111 | 17 | 56 | 91 | 51 | 102 | – |
